Data as given in PMC5150661 (Journal of Medicinal Chemistry, 2016).
Marks after values point to notes of the source that are not given here.

Legend:
S. mansoni [1] = details: 1 × 100 mg/kg po; ref Keiser et al. 19; 100 mg/kg; cited from earlier work
[2] = test system: androgen-dependent cell line; details: cited from earlier work
[3] = single 1250 mg/kg dose, mice; cited from earlier work
[4] = test system: schistosomula or adult S. mansoni; details: concentrations up to 170 μM; cited from earlier work
[5] = assay type: in vitro ADME; details: liver microsomes
[6] = cited from earlier work
[7] = 1% DMSO, nephelometry; for Sol2.0: 0.01 M HCl (approximately pH 2.0); for Sol6.5: pH 6.5 phosphate buffer
AR = details: cited from earlier work
[8] = Mouse exposure study after oral administration; assay type: in vivo, male Swiss outbred mice; details: male, Swiss outbred, mouse, plasma, po, 100 mg/kg
S. mansoni [9] = experiment: S. mansoni in vivo study, worm burden reduction in infected NMRI mice; design: species or system Schistosoma mansoni in NMRI mice; details: Schistosoma mansoni, in Mus musculus, po, 504 h, read-out: S. mansoni WBR
physchem = assay type: physicochemical; details: pH 7.4
in vitro [10] = details: mouse, microsomes
human albumin = human albumin (Homo sapiens, UniProt P02768); experiment: in vitro; assay type: in vitro ADME; details: plasma, cPPB, estimated from retention on human albumin column
in vitro [11] = details: human, microsomes

Sequence of human albumin (P02768 25-609): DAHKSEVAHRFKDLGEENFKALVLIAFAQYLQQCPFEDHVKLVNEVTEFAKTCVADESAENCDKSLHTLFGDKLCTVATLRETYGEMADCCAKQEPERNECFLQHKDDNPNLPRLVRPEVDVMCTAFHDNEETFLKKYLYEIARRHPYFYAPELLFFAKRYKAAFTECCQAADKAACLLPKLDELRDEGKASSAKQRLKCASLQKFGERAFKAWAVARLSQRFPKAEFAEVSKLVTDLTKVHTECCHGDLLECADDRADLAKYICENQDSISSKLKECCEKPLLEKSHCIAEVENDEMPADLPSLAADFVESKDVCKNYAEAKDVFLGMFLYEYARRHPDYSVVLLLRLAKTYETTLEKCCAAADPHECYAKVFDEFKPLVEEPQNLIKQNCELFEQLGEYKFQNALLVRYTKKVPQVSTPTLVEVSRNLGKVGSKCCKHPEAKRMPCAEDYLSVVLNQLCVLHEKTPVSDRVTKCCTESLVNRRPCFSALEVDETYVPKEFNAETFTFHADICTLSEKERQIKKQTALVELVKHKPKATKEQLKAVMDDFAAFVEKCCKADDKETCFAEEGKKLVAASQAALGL

SMILES | S. mansoni WBR (S. mansoni [1]) | DHT-induced cell proliferation [2] | toxicity after a single dose [3] | effect on adult S. mansoni in vitro [4] | metabolic stability (in words) [5] | pKa [6] | Sol2.0 [7] | Sol6.5 [7] | interaction with the AR in a ligand competition assay (AR) | AUC(0-t) [8] [µM·h] | Cmax [8] [µM] | Tmax [8] [h] | inhibition in vivo at 100 mg/kg (S. mansoni [9]) [%] | chromatographic logD (physchem) | microsomal CLint (in vitro [10]) [µL/min/mg] | fraction unbound (human albumin) | microsomal CLint (in vitro [11]) [µL/min/mg]
CC1(C)NC(=O)N(c2ccc(F)c(C(F)(F)F)c2)C1=O [Compd 1] | 95 ^h % | did block | no apparent toxicity | almost no effect | high metabolic stabilities | 12.1 | >100/>100 μg/mL | >100/>100 μg/mL | no measurable interaction |  |  |  |  |  |  |  | 
CC1NC(=O)N(c2ccc(F)c(C(F)(F)F)c2)C1=O (centres unmarked) [Compd 23, 3-[4-Fluoro-3-(trifluoromethyl)phenyl]-5-methylimidazolidine-2,4-dione] |  |  |  |  | high metabolic stabilities |  | >100/>100 μg/mL | >100/>100 μg/mL |  | 163 | 26.6 | 1 | 66 | 2.4 | 34 | 0.614 | 17
